Like-named read-outs stand apart in the source and are kept apart here.
Assays:
Assay type in all cases: cell-based
Bacillus subtilis DSM10 = test: Test agar plates (disc diffusion), diameter of inhibition area; conditions: for zone of inhibition at 1000 µg/mL: Bacillus subtilis, DSM10, 18 h, read-out: diameter of inhibition, Bacillus subtilis DSM10; for Antibacterial activity, diameter of inhibition area, Bacillus subtilis DSM 10: 10 μl per test disc, "—" no activity detected
Procedure: (§1) The dry compounds were dissolved in DMSO (1 mg/ml) and the so obtained stock solution was diluted with sterilized Millipore water 1:10 and 1:100
(§2) 20 μl of cryo stock of each strain were inoculated to 20 ml of Mueller-Hinton medium and grown overnight at 30° C. or 37° C. on a vertical shaker with 160 rpm. The inoculum for the test was adjusted by the 0.5 McFarland Standard (OD625 from 0.08 to 0.1)
Bacillus subtilis DSM10 [gram. Pos.] Medium: MHB/30° C.
(§3) Every plate is prepared by pouring 10 ml Mueller-Hinton agar into standard petri dishes (diam 94 mm). The so obtained Mueller-Hinton plates are overlayed with 4 ml Mueller-Hinton soft agar containing 100 μl suspension of the test strain.
(§4) After the soft agar turned solid, sterile susceptibility test discs were circular placed on the agar and on every test disc 10 μl compound was added. Each concentration is tested in triplicate. The agar dishes were incubated for 18 hours at a temperature of 30° C. or 37° C. Results are obtained by measuring the diameter of inhibition area around each test disc.

[1] = tested on: Micrococcus luteus DSM1790; test: as above; conditions: for zone of inhibition at 1000 µg/mL: Micrococcus luteus, DSM1790, 18 h, read-out: diameter of inhibition, Micrococcus luteus DSM1790; for Antibacterial activity, diameter of inhibition area, Micrococcus luteus: 10 μl per test disc, "—" no activity detected
Procedure: as §1, §2
Micrococcus luteus DSM1790 [gram. Pos.] Medium: MHB/37° C.
as §3, §4

[2] = tested on: Staphylococcus aureus DSM 2569; test: as above; conditions: DSM2569, 18 h, read-out: diameter of inhibition, Staphylococcus aureus DSM 2569
Procedure: as §1, §2
Staphylococcus aureus DSM 2569 [gram. Pos.] Medium: MHB/37° C.
as §3, §4

[3] = tested on: Pseudomonas aeruginosa DSM1117; test: as above; conditions: DSM1117, 18 h, read-out: diameter of inhibition, Pseudomonas aeruginosa DSM1117
Procedure: as §1, §2
Pseudomonas aeruginosa DSM1117 [gram. Neg.] Medium: MHB/37° C.
as §3, §4

[4] = tested on: Escherichia coli albi-res (Montpellier); test: as above; conditions: 18 h, read-out: diameter of inhibition, Escherichia coli albi-res (Montpellier)
Procedure: as §1, §2
Escherichia coli albi-res (Montpellier) [gram. Neg.] Medium: MHB/37° C.
as §3, §4

Escherichia coli DH5α = test: as above; conditions: 18 h, read-out: diameter of inhibition, Escherichia coli DH5α
Procedure: as §1, §2
Escherichia coli DH5α [gram. Neg.] Medium: MHB/37° C.
as §3, §4

[5] = tested on: Escherichia coli (ATCC 25922, 100-2-49 and 100-2-56); test: EN-ISO standard test (ISO 20776-1), MIC
Procedure: (§5) Furthermore, compounds were tested against the following bacteria
(§6) according to EN-ISO standard (ISO 20776-1: 2006. Clinical laboratory testing and in vitro diagnostic test systems—Susceptibility testing of infectious agents and evaluation of performance of antimicrobial susceptibility test devices—Part 1:Reference method for testing the in vitro activity of antimicrobial agents against rapidly growing aerobic bacteria involved in infectious diseases; German version EN ISO 20776-1:2006. Beuth-Verlag, Berlin).

[6] = tested on: Staphylococcus aureus (ATCC 29213); test: EN-ISO standard test (ISO 20776-1), MIC
Procedure: as §5, §6

[7] = tested on: Staphylococcus aureus (PEG 10-38-22); test: EN-ISO standard test (ISO 20776-1), MIC
Procedure: as §5, §6

[8] = tested on: Salmonella enteritidis (PEG-10-3-58); test: EN-ISO standard test (ISO 20776-1), MIC
Procedure: as §5
Salmonella enteritidis (PEG-10-3-58),
as §6

[9] = tested on: Pseudomonas aeruginosa (ATCC 27853); test: EN-ISO standard test (ISO 20776-1), MIC
Procedure: as §5
(§7) Pseudomonas aeruginosa (ATCC 27853 and PEG-10-2-61)
as §6

[10] = tested on: Pseudomonas aeruginosa (PEG-10-2-61); test: EN-ISO standard test (ISO 20776-1), MIC
Procedure: as §5, §7, §6

Bacillus megaterium = test: Test agar plates (disc diffusion), diameter of inhibition area; conditions: 10 μl per test disc, "—" no activity detected
Procedure: as §1, §2
Bacillus megaterium [gram. Pos.] Medium: MHB/30° C.
as §3, §4

[11] = tested on: Mycobacterium phlei DSM750; test: as above; conditions: concentration 1 mg/ml; 10 μl per test disc; "—" no activity detected
Procedure: as §1, §2
Mycobacterium phlei DSM750 [gram. Pos.] Medium: MHB/30° C.
as §3, §4

[12] = tested on: Escherichia coli K12 (W1130); test: as above; conditions: 10 μl per test disc, "—" no activity detected
Procedure: as §1, §2
Escherichia coli K12 (W1130) [gram. Neg.] Medium: MHB/37° C.
as §3, §4

[13] = tested on: test strains of the agar plate tests; test: Test agar plates, control substance in the same tests (strains not named individually); conditions: active substance 1 mg/ml
Procedure: as §1, §2, §3, §4
Test Agar Plates (Active Substance 1 mg/ml) Control Substance: […]

[14] = test agar plates, active substance 1 mg/ml, more than 1 cm or more than 3.9 cm [sic]
[15] = test agar plates, active substance 1 mg/ml, "more than 1 cm and more than 2 cm" [sic]
[16] = test agar plates, active substance 1 mg/ml, more than 1 cm or more than 2 cm

| Structure (SMILES) | zone of inhibition at 1000 µg/mL (Bacillus subtilis DSM10; [14]) [mm] | zone of inhibition at 1000 µg/mL [1, 15] [mm] | zone of inhibition at 1000 µg/mL [2, 15] [mm] | zone of inhibition at 1000 µg/mL [3, 16] [mm] | zone of inhibition at 1000 µg/mL [4, 16] [mm] | zone of inhibition at 1000 µg/mL (Escherichia coli DH5α; [16]) [mm] | MIC values (minimal inhibitory concentration), in words [5] | MIC values, in words [6] | MIC values, in words [7] | MIC values, in words [8] | MIC values, in words [9] | MIC values, in words [10] | zone of inhibition at 1000 µg/mL [4] [mm] | further results |
| --- | --- | --- | --- | --- | --- | --- | --- | --- | --- | --- | --- | --- | --- | --- |
| COc1c(NC(=O)c2ccc(NC(=O)c3ccc(NC(=O)C(CC#N)NC(=O)c4ccc(NC(=O)/C(C)=C/c5ccc(F)cc5)cc4)cc3)c(OC)c2O)ccc(C(=O)O)c1O (stereo not shown) [Compound 1] | > 10 | > 10 | > 10 | > 10 | > 10 | > 10 | good to very good | good to very good | good to very good | good to very good | good to very good | good to very good | – | – |
| CN[C@@H]1[C@@H](O[C@H]2O[C@H](CO)[C@@H](N)[C@H](O)[C@H]2O)OC2C[C@@H](N)[C@@H](O[C@H]3[C@H](O)[C@@H](O)[C@H](N)C[C@@H]3N)OC2[C@@H]1O (stereo partly shown) [Apramycin, reference compound] | – | – | – | – | – | – | – | – | – | – | – | – | – | Antibacterial activity, diameter of inhibition area, Bacillus subtilis DSM 10 (Bacillus subtilis DSM10; concentration 1 mg/ml): 2.0; Antibacterial activity, diameter of inhibition area, Bacillus megaterium (Bacillus megaterium; concentration 1 mg/ml): 3.5; Antibacterial activity, diameter of inhibition area, Mycobacterium phlei DSM 750 [11]: 2.2; Antibacterial activity, diameter of inhibition area, Micrococcus luteus ([1]; concentration 1 mg/ml): 1.8; Antibacterial activity, diameter of inhibition area, Escherichia coli K12 (W1130) ([12]; concentration 1 mg/ml): 1.7 |
| COc1c(NC(=O)c2ccc(NC(=O)c3ccc(NC(=O)C(CC#N)NC(=O)c4ccc(NC(=O)COc5ccccc5)cc4)cc3)c(OC)c2O)ccc(C(=O)O)c1O (stereo not shown) [Compound 30] | – | – | – | – | – | – | good to very good | good to very good | – | good to very good | good to very good | – | > 10 | zone of inhibition at 1000 µg/mL (Bacillus subtilis DSM10): > 10 mm; zone of inhibition at 1000 µg/mL [1]: > 10 mm; zone of inhibition at 1000 µg/mL [2]: > 10 mm; zone of inhibition at 1000 µg/mL [3]: > 10 mm; zone of inhibition at 1000 µg/mL (Escherichia coli DH5α): > 10 mm |
| COc1c(NC(=O)c2ccc(NC(=O)c3ccc(NC(=O)C(CC#N)NC(=O)c4ccc(NC(=O)C5CCCCC5)cc4)cc3)c(OC)c2O)ccc(C(=O)O)c1O (stereo not shown) [Compound 35] | > 10 | – | > 10 | > 10 | – | > 10 | good to very good | – | – | good to very good | good to very good | – | > 10 | – |
| COc1c(NC(=O)c2ccc(NC(=O)c3ccc(NC(=O)C(CC#N)NC(=O)c4ccc(NC(=O)c5cscn5)cc4)cc3)c(OC)c2O)ccc(C(=O)O)c1O (stereo not shown) [Compound 16] | > 10 | > 10 | > 10 | – | > 10 | > 10 | good to very good | – | – | good to very good | – | – | – | – |
| COc1c(NC(=O)c2ccc(NC(=O)c3ccc(NC(=O)[C@H](CC#N)NC(=O)c4ccc(NC(=O)/C(C)=C/c5ccc(O)cc5)cc4)cc3)c(OC)c2O)ccc(C(=O)O)c1O [Natural albicidin, Albicidin] | – | – | – | – | – | – | – | – | – | – | – | – | – | diameter of inhibition, control substance in the same tests [13]: more than 1 cm |
| COc1c(NC(=O)c2ccc(NC(=O)c3ccc(NC(=O)[C@H](CC#N)NC(=O)c4ccc(NC(=O)/C(C)=C/c5ccc(O)cc5)cc4)cc3)c(OC)c2O)ccc(C(=O)O)c1O [A, beta-Albicidin] | – | – | – | – | – | – | – | – | – | – | – | – | – | Antibacterial activity, diameter of inhibition area, Bacillus subtilis DSM 10 (Bacillus subtilis DSM10; concentration 0.1 mg/ml): 1.4; Antibacterial activity, diameter of inhibition area, Bacillus subtilis DSM 10 (Bacillus subtilis DSM10; concentration 1 mg/ml): 2.8; Antibacterial activity, diameter of inhibition area, Bacillus megaterium (Bacillus megaterium; concentration 0.1 mg/ml): 1.2; Antibacterial activity, diameter of inhibition area, Bacillus megaterium (Bacillus megaterium; concentration 1 mg/ml): 2.0; Antibacterial activity, diameter of inhibition area, Mycobacterium phlei DSM 750 [11]: 1.5; Antibacterial activity, diameter of inhibition area, Micrococcus luteus ([1]; concentration 0.1 mg/ml): 2.0; Antibacterial activity, diameter of inhibition area, Micrococcus luteus ([1]; concentration 1 mg/ml): 2.8; Antibacterial activity, diameter of inhibition area, Escherichia coli K12 (W1130) ([12]; concentration 0.1 mg/ml): 1.9; Antibacterial activity, diameter of inhibition area, Escherichia coli K12 (W1130) ([12]; concentration 1 mg/ml): 2.6 |
| COc1c(NC(=O)c2ccc(NC(=O)c3ccc(NC(=O)C(CC#N)NC(=O)c4ccc(NC(=O)/C=C/c5ccc6c(c5)OCO6)cc4)cc3)c(OC)c2O)ccc(C(=O)O)c1O (stereo not shown) [Compound 5] | > 10 | > 10 | > 10 | > 10 | > 10 | > 10 | good to very good | good to very good | good to very good | good to very good | good to very good | good to very good | – | – |
| COc1c(NC(=O)c2ccc(NC(=O)c3ccc(NC(=O)C(CC#N)NC(=O)c4ccc(NC(=O)C5C6CC7CC(C6)CC5C7)cc4)cc3)c(OC)c2O)ccc(C(=O)O)c1O (stereo not shown) [Compound 36] | > 10 | > 10 | > 10 | > 10 | – | > 10 | good to very good | good to very good | good to very good | good to very good | good to very good | good to very good | > 10 | – |

Reference: patent publication US10308595B2, “Albicidin derivatives, their use and synthesis” (priority 2013, dated 2019)
